Results taken from publication PMC6934184, “Selective DNA-PKcs inhibition extends the therapeutic index of localized radiotherapy and chemotherapy” (The Journal of Clinical Investigation, 2019).

Target: T1, TGFBR1 (ALK5) (Homo sapiens, UniProt P36897)
T1 construct: purchased Thermo Fisher Scientific (Life Technologies) SelectScreen
Assay: SelectScreen LanthaScreen
Assay type: binding
Details: read-out: % displacement
Procedure, shortened: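 NU5455 was profiled across the SelectScreen Broad panel of kinase activity and binding assays. Z'LYTE reactions such as CSF1R ran at apparent Km ATP, while the Adapta CAMK1 assay used ATP listed as 10. Values are given as percent.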

T1 sequence (P36897 34-503): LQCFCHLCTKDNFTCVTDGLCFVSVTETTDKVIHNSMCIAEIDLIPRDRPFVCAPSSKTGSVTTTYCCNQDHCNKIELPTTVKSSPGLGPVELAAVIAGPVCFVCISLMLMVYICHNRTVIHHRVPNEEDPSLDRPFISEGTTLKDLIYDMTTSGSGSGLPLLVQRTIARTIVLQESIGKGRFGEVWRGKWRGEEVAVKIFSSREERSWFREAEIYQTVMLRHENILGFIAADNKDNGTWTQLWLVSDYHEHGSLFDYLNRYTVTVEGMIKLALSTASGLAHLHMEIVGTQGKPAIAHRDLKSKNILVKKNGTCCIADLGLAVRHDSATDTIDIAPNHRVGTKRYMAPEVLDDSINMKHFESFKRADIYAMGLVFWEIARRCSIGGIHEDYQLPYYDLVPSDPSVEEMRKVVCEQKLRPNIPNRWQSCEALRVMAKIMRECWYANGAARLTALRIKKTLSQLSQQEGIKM

`CN(C(=O)CN1CCOCC1)c1ccc2sc3c(-c4cccc5c(=O)cc(N6CC7CCC(C6)O7)oc45)cccc3c2c1` [NU5455] gave an inhibition at 1 µM of -0.4%.
